What was measured:
[1] = mouse liver microsomal stability (Microsome Assay Protocol); assay type: in vitro ADME; settings: pH 7.4; mouse liver microsomes, NADPH, 37° C.; read-out: MLM t1/2, min
Description: (§1) ND refers to not disclosed.
• 1. Buffer A: 1.0 L of 0.1 M monobasic Potassium Phosphate buffer containing 1.0 mM EDTA Buffer B: 1.0 L of 0.1 M Dibasic Potassium Phosphate buffer containing 1.0 mM EDTA • Buffer C: 0.1 M Potassium Phosphate buffer, 1.0 mM EDTA, pH 7.4 by titrating 700 mL of buffer B with buffer A while monitoring with a pH meter. • 2. Reference compound (Ketanserin) and test compounds spiking solution: • 500 μM spiking solution: added 10 μL of 10 mM DMSO stock solution into 190 μL ACN. • 1.5 μM spiking solution in microsomes (0.75 mg/mL): added 1.5 μL of 500 μM spiking solution and 18.75 μL of 20 mg/mL liver microsomes into 479.75 μL of Buffer C on ice. • 3. Prepared NADPH stock solution (6 mM) by dissolving NADPH into buffer C. Dispensed 30 μL of 1.5 μM spiking solution containing 0.75 mg/mL microsomes solution to the assay plates designated for different time points (0-, 5-, 15-, 30-, 45-min) on ice. For 0-min, added 135 μL of ACN containing IS to the wells of 0-min plate and then added 15 μL of NADPH stock solution (6 mM). Pre-incubated all other plates at 37° C. for 5 minutes. Added 15 μL of NADPH stock solution (6 mM) to the plates to start the reaction and timing. At 5-min, 15-min, 30-min, and 45-min, added 135 μL of ACN containing IS to the wells of corresponding plates, respectively, to stop the reaction. After quenching, shook the plates at the vibrator (IKA, MTS 2/4) for 10 min (600 rpm/min) and then centrifuged at 5594 g for 15 min (Thermo Multifuge×3R). Transferred 50 μL of the supernatant from each well into a 96-well sample plate containing 50 μL of ultra pure water (Millipore, ZMQS50F01) for LC/MS analysis.

[2] = molecular target: T1, USP7, Active human recombinant protein (Homo sapiens, UniProt Q93009); assay: USP7 assay (Ubiquitin-Rhodamine 110 enzymatic assay); assay type: biochemical; settings: read-out: IC50
T1 construct: purchased CP Lot; 20200225001
T1 sequence (Q93009 whole entry): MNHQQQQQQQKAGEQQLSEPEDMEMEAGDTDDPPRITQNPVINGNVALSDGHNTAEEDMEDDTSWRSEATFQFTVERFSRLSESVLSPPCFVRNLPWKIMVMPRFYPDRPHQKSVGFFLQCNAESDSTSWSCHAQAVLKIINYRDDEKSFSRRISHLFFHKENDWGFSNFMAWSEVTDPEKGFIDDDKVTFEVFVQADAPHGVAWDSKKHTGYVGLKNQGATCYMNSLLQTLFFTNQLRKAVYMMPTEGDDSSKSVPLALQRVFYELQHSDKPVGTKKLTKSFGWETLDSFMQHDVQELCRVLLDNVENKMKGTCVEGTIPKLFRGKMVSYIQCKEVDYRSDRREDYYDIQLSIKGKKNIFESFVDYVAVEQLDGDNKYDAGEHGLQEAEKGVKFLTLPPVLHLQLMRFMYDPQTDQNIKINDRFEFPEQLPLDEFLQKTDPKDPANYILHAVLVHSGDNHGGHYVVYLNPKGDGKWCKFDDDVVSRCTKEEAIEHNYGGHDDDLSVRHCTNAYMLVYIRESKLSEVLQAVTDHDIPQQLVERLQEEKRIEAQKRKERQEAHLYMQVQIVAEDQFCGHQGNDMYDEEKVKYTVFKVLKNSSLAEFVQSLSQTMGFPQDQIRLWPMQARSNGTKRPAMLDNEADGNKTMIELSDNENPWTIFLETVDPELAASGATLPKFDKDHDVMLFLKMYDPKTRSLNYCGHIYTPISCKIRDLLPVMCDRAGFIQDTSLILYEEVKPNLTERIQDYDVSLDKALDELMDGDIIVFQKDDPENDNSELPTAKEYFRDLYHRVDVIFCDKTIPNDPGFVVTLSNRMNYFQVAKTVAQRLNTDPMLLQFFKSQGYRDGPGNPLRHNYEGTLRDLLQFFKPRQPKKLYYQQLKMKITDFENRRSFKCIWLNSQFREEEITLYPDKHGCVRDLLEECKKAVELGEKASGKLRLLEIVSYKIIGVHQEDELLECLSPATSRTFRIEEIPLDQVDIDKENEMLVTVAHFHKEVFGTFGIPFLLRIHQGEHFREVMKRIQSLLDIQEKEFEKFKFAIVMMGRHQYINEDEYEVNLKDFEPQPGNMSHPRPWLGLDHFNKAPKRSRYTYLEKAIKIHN
Description: Enzymatic Assays with Exemplary USP7 Irreversible Inhibitors
as §1
USP7, Active human recombinant protein (CP, Lot. 20200225001), Ubiquitin-Rhodamine 110 (Rh110) (BostonBiochem, Cat. No. U-555), DMSO (Sigma, Cat. N34869), DTT (Sangon Biotech, Cat. No. A620058-0005), […] Tris pH 8.0 (Sigma, Cat. No. T2694-1L), Tween-20 (Sigma, Cat. No. P2287-100ML), EDTA (Invitrogen, Cat. No. 15575020, BSA (Sigma, Cat. No. B2064-100G), 384-well assay plate (Corning, Cat. No. 3573), Echo Qualified 384-Well Polypropylene Microplate 2.0, Clear, Flat Bottom (LABCYTE, Cat. No. 001-14555).
Dilute the compounds to 400× of the final desired highest inhibitor concentration in reaction by 100% DMSO. For all compounds, transfer the compounds to one well in a 384-well Echo plate and serially dilute the compound by 3-fold dilution of 100% DMSO in the next well and so forth for a total of 10 concentrations by Precision. Add 30 μL of 100% DMSO to two empty wells for no compound control and no enzyme control in the same 384-well Echo plate. Make the plate as a source plate.
For USP7 assay, transfer 50 nL of each well from the source plate to a 384-well assay plate (OptiPlate TM-384 F black assay plates) by Echo 550 Liquid Handler.
Added appropriate amount of USP7 in 1× assay Buffer to prepare 2× enzyme solution (USP7 final concentration: 0.05 nM). Added appropriate amount of Ubiquitin-Rhodamine 110 in 1× assay Buffer to prepare 2× substrate solution (Ubiquitin-Rhodamine 110 final concentration: 190 nM). Added 10 μL of 2× enzyme solution to each reaction well of the 384-well assay plate, except for control wells without enzyme (add 10 μL of 1× Assay Buffer instead as for low control). […] Transferred 2× substrate solution to the assay plate. Added 10 μL of 2× substrate solution to each well of the 384-well assay plate to start reaction. Centrifuged at 1000 rpm for 1 min. Read the plate kinetically on SpectraMax Paradigm for 20 min with excitation at 485 nm and emission at 535 nm. Copied raw data (slope) from Reader to obtain inhibition values in Excel using equation (1): […]
Max signal was obtained from the action of Enzyme and Substrate. Min signal was obtained from the Substrate only. To fit the data in XLFit excel add-in version 5.4.0.8 to obtain IC50 values used equation (2): […]
Y is % inhibition and X is compound concentration.

Row | Compound | half-life at 1 µM [1] | IC50 [2]
1 | CC(c1ccccc1)C(CCCNC(=O)c1ccc2c(Cl)cc(C3CC3)nc2c1)C(=O)N1CCC(O)(Cn2cnc3cc(OCCCN(C)C)ccc3c2=O)CC1 (stereo not shown) | 7.27 min | 0.02 to 0.1 µM
2 | CN1CCN(CCC(=O)Nc2ccc3c(=O)n(CC4(O)CCN(C(=O)C(CCCNC(=O)c5ccc6c(Cl)cc(-c7ccc(F)cc7)nc6c5)Cc5ccccc5)CC4)cnc3c2)CC1 (stereo not shown) | 22.7 min | 0.1 to 1 µM
3 | O=C(CN1CCN(C(=O)c2ccc3c(Cl)c4c(nc3c2)CCCC4)CC1)N1CCC(O)(Cn2cnc3cc(Cl)ccc3c2=O)CC1 | 2.31 min | > 1 µM
4 | CN(C)CCCOc1ccc2c(=O)n(CC3(O)CCN(C(=O)[C@H](CCCNC(=O)c4ccc5c(Cl)c(C#N)cnc5c4)Cc4ccccc4)CC3)cnc2c1 | 1.67 min | < 0.02 µM
5 | CN(C)CCCOc1ccc2c(=O)n(CC3(O)CCN(C(=O)[C@H](CCCNC(=O)c4ccc5c(Cl)c(C6CC6)cnc5c4)Cc4ccccc4)CC3)cnc2c1 | 31.9 min | < 0.02 µM
6 | CN(C)CCCOc1ccc2c(=O)n(CC3(O)CCN(C(=O)[C@H](CCCNC(=O)c4cnc5c(Cl)ccnc5c4)Cc4ccccc4)CC3)cnc2c1 | 44 min | 0.1 to 1 µM
7 | CN(C)CCCOc1ccc2c(=O)n(CC3(O)CCN(C(=O)C(CCCNC(=O)c4ccc5c(Cl)c(CO)cnc5c4)Cc4ccccc4)CC3)cnc2c1 (stereo not shown) | 57.6 min | < 0.02 µM
8 | CN(C)CCCOc1ccc2c(=O)n(CC3(O)CCN(C(=O)[C@@H](CCCNC(=O)c4ccc5c(Cl)c(C(N)=O)cnc5c4)Cc4ccccc4)CC3)cnc2c1 | 30.2 min | < 0.02 µM
9 | CN(C)CCCOc1ccc2c(=O)n(CC3(O)CCN(C(=O)[C@H](CCCNC(=O)c4ccc5c(Cl)c(C(=O)N(C)C)cnc5c4)Cc4ccccc4)CC3)cnc2c1 | 33.8 min | 0.1 to 1 µM
10 | CN(C)CCCOc1ccc2c(=O)n(CC3(O)CCN(C(=O)[C@@H](CCCNC(=O)c4ccc5c(Cl)c(C(=O)NC6CC6)cnc5c4)Cc4ccccc4)CC3)cnc2c1 | 62.4 min | < 0.02 µM
11 | CN(C)CCCOc1ccc2c(=O)n(CC3(O)CCN(C(=O)[C@H](CCCNC(=O)c4ccc5c(Cl)c6c(nc5c4)CCNC6=O)Cc4ccccc4)CC3)cnc2c1 | 10.2 min | 0.1 to 1 µM
12 | CN(C)CCCOc1ccc2c(=O)n(CC3(O)CCN(C(=O)C(CCCNC(=O)c4ccc5c(Cl)c6c(nc5c4)CCN(C)C6=O)Cc4ccccc4)CC3)cnc2c1 (stereo not shown) | 14.4 min | 0.02 to 0.1 µM
13 | CN(C)CCCOc1ccc2c(=O)n(CC3(O)CCN(C(=O)C(CCCNC(=O)c4ccc5c(Cl)c6c(nc5c4)CN(C)C6=O)Cc4ccccc4)CC3)cnc2c1 (stereo not shown) | 11.3 min | < 0.02 µM
14 | CN(C)CCCOc1ccc2c(=O)n(CC3(O)CCN(C(=O)C(CCCNC(=O)c4ccc5c(Cl)c6c(nc5c4)C(C)(C)NC6=O)Cc4ccccc4)CC3)cnc2c1 (stereo not shown) | 16.3 min | > 1 µM
15 | CN(C)CCCOc1ccc2c(=O)n(CC3(O)CCN(C(=O)C(CCNC(=O)c4ccc5c(Cl)c(C(N)=O)cnc5c4)Cc4ccccc4)CC3)cnc2c1 (stereo not shown) | 28.2 min | < 0.02 µM
16 | CN(C)CCCOc1ccc2c(=O)n(CC3(O)CCN(C(=O)C(Cc4ccccc4)NCCNC(=O)c4ccc5c(Cl)c(C(N)=O)cnc5c4)CC3)cnc2c1 (stereo not shown) | 65.5 min | < 0.02 µM
17 | CN(C)CCCOc1ccc2c(=O)n(CC3(O)CCN(C(=O)C(Cc4ccccc4)N(C)CCNC(=O)c4ccc5c(Cl)c(C(N)=O)cnc5c4)CC3)cnc2c1 (stereo not shown) | 36.4 min | < 0.02 µM

Row | Compound | half-life at 1 µM [1] | IC50 [2]
18 | CN(C)CCCOc1cc2ncn(CC3(O)CCN(C(=O)[C@@H](CCCNC(=O)c4ccc5c(Cl)cc(C6CC6)nc5c4)Cc4ccccc4)CC3)c(=O)c2cc1F | 22.1 min | < 0.02 µM
19 | CN(C)CCCNc1cc2ncn(CC3(O)CCN(C(=O)[C@@H](CCCNC(=O)c4ccc5c(Cl)cc(C6CC6)nc5c4)Cc4ccccc4)CC3)c(=O)c2cc1F | 18.6 min | < 0.02 µM
20 | CN(C)CCCOc1ccc2c(=O)n(CC3(O)CCN(C(=O)C(Cn4ccc(F)n4)N(C)CCNC(=O)c4ccc5c(Cl)c(C(N)=O)cnc5c4)CC3)cnc2c1 (stereo not shown) | 106 min | 0.02 to 0.1 µM
21 | CN(C)CCCOc1ccc2c(=O)n(CC3(O)CCN(C(=O)C(CCCNC(=O)c4ccc5c(Cl)c(C(=O)NC6CC6)cnc5c4)Cn4ccc(F)n4)CC3)cnc2c1 (stereo not shown) | 152 min | < 0.02 µM
22 | CN(C)CCCOc1ccc2c(=O)n(CC3(O)CCN(C(=O)C(Cc4ccccc4)N(C)CCNC(=O)c4ccc5c(Cl)c(C(=O)NC6CC6)cnc5c4)CC3)cnc2c1 (stereo not shown) | 46.5 min | 0.02 to 0.1 µM
23 | NC(=O)c1cnc2cc(C(=O)NCCCC(Cn3ccc(F)n3)C(=O)N3CCC(O)(Cn4cnc5ccccc5c4=O)CC3)ccc2c1Cl (stereo not shown) | 6.51 min | 0.02 to 0.1 µM
24 | O=C(NCCCC(Cn1ccc(F)n1)C(=O)N1CCC(O)(Cn2cnc3ccccc3c2=O)CC1)c1ccc2c(Cl)c(C(=O)NC3CC3)cnc2c1 (stereo not shown) | 4.61 min | 0.02 to 0.1 µM
25 | C=CC(=O)Nc1ccc(Cl)cc1N1CCC(C(=O)N2CCC(O)(Cn3cnc4cc(NC(=O)CCN5CCN(C)CC5)ccc4c3=O)CC2)C(c2ccccc2)C1 (stereo not shown) [Compound 103] | – | 0.1 to 1 µM
26 | C=CC(=O)Nc1ccc(C(F)(F)F)cc1N1CCC(C(=O)N2CCC(O)(Cn3cnc4cc(NC(=O)CCN5CCN(C)CC5)ccc4c3=O)CC2)C(c2ccccc2)C1 (stereo not shown) [Compound 104] | – | 0.1 to 1 µM
27 | O=C(NCCN1CCC(C(=O)N2CCC(O)(Cn3cnc4cc(OCCN5CCNCC5)ccc4c3=O)CC2)C(c2ccccc2)C1)c1ccc2c(Cl)cc(C3CC3)nc2c1 (stereo not shown) [Compound 107] | – | 0.02 to 0.1 µM
28 | CN(C)CCOc1cc(F)c2c(=O)n(CC3(O)CCN(C(=O)[C@H](CCCNC(=O)c4ccc5c(Cl)cc(C6CC6)nc5c4)Cc4ccccc4)CC3)cnc2c1 [Compound 118] | – | 0.1 to 1 µM
29 | CN(C)CCCOc1ccc2c(=O)n(CC3(O)CCN(C(=O)[C@H](CCCNC(=O)c4ccc5c(Cl)c(C(F)F)cnc5c4)Cc4ccccc4)CC3)cnc2c1 [Compound 130] | – | < 0.02 µM
30 | CN(C)CCCOc1ccc2c(=O)n(CC3(O)CCN(C(=O)[C@H](CCCNC(=O)c4ccc5c(Cl)c(F)cnc5c4)Cc4ccccc4)CC3)cnc2c1 [Compound 131] | – | 0.1 to 1 µM
31 | O=C(NCCC[C@H](Cc1ccccc1)C(=O)N1CCC(O)(Cn2cnc3cc(-c4ncc(CN5CCNCC5)o4)ccc3c2=O)CC1)c1ccc2c(Cl)cc(C3CC3)nc2c1 [Compound 135] | – | 0.02 to 0.1 µM
32 | CN(C)CCCNc1ccc2c(=O)n(CC3(O)CCN(C(=O)[C@H](CCCNC(=O)c4ccc5c(Cl)cc(C6CC6)nc5c4)Cc4ccccc4)CC3)cnc2c1 [Compound 136] | – | < 0.02 µM
33 | COc1cc2c(=O)n(CC3(O)CCN(C(=O)[C@H](CCCNC(=O)c4ccc5c(Cl)cc(C6CC6)nc5c4)Cc4ccccc4)CC3)cnc2cc1OCCCN(C)C [Compound 138] | – | 0.02 to 0.1 µM
34 | O=C(NCCN1CC[C@@H](C(=O)N2CCC(O)(Cn3cnc4cc(-c5nc(CN6CCNCC6)co5)ccc4c3=O)CC2)[C@H](c2ccccc2)C1)c1ccc2c(Cl)ccnc2c1 [Compound 144] | – | 0.02 to 0.1 µM

Source: patent US20240376076A1, “INHIBITORS TARGETING UBIQUITIN SPECIFIC PROTEASE 7 (USP7)” (Dana-Farber Cancer Institute, Inc., priority 2021, published 2024)
